Laboratory results: the supplement of paper PMC6045584
± gives the standard deviation of the averaged measurements.

Assays:
MK-1775 = compound: C=CCn1c(=O)c2cnc(Nc3ccc(N4CCN(C)CC4)cc3)nc2n1-c1cccc(C(C)(C)O)n1 [MK-1775]; assay: area under dose-response curve of surviving fraction (unscaled, Aref=0) (surviving fraction x log10(nM)); higher = more resistant; conditions: exposure time: 5 days; dose range 0.5-1000 nM
Outline: (§1)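 Tumour cell lines in 384-well plates were exposed for five days to eight inhibitor concentrations from 0.5 to 1000 nM. Viability was read by CellTiter-Glo luminescence, normalised to DMSO-only wells, in three screens per line. Dose-response survival curves were fitted to surviving fractions by 3-parameter logistic regression in the drc R package. Area under the curve is the unscaled activity area (Aref = 0) over log10 dose.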

BLEOMYCIN = compound: Cc1c(N)nc([C@H](CC(N)=O)NC[C@H](N)C(N)=O)nc1C(=O)N[C@H](C(=O)N[C@H](C)[C@@H](O)[C@H](C)C(=O)N[C@H](C(=O)NCCc1nc(-c2nc(C(=O)NCCC[S+](C)C)cs2)cs1)[C@@H](C)O)[C@@H](OC1OC(CO)C(O)C(O)C1OC1OC(CO)C(O)C(OC(N)=O)C1O)c1cnc[nH]1 [BLEOMYCIN]; assay: as above; conditions: exposure time: 5 days; dose range 0.5-1000 nM
Outline: as §1

AFIMOXIFENE [1] = compound: T1, CC/C(=C(\c1ccc(O)cc1)c1ccc(OCCN(C)C)cc1)c1ccccc1 [AFIMOXIFENE]; assay: as above; conditions: exposure time: 5 days; dose range 0.5-1000 nM
Outline: as §1

CABOZANTINIB = compound: COc1cc2nccc(Oc3ccc(NC(=O)C4(C(=O)Nc5ccc(F)cc5)CC4)cc3)c2cc1OC [CABOZANTINIB]; assay: as above; conditions: exposure time: 5 days; dose range 0.5-1000 nM
Outline: as §1

IMATINIB = compound: Cc1ccc(NC(=O)c2ccc(CN3CCN(C)CC3)cc2)cc1Nc1nccc(-c2cccnc2)n1 [IMATINIB]; assay: surviving fraction relative to DMSO-only wells; higher = less growth inhibition; conditions: exposure time: 5 days
Outline: (§2)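 Inhibitors were tested at 0.5, 1, 5, 10, 50, 100, 500 and 1000 nM, applied continuously for five days beginning 24 hours after log-phase tumour cells were seeded at 250–500 per well in 384-well plates. CellTiter-Glo luminescence served as the viability measure, expressed as surviving fraction against the median of DMSO-only wells. Each line, screened three times, was kept only with replicate Pearson r >0.7 and median Z' >0.3.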

AFIMOXIFENE [2] = compound: T1, AFIMOXIFENE; assay: as above; conditions: exposure time: 5 days
Outline: as §2

Row | Test System | area under dose-response curve (MK-1775) | area under dose-response curve (BLEOMYCIN) | area under dose-response curve (AFIMOXIFENE [1]) | area under dose-response curve (CABOZANTINIB) | surviving fraction (IMATINIB; 0.5 nM) | surviving fraction (IMATINIB; 1 nM) | surviving fraction (IMATINIB; 5 nM) | surviving fraction (IMATINIB; 10 nM) | surviving fraction (IMATINIB; 500 nM) | surviving fraction (AFIMOXIFENE [2]; 0.5 nM) | surviving fraction (AFIMOXIFENE [2]; 1 nM) | surviving fraction (AFIMOXIFENE [2]; 5 nM) | surviving fraction (AFIMOXIFENE [2]; 10 nM) | surviving fraction (AFIMOXIFENE [2]; 50 nM) | surviving fraction (AFIMOXIFENE [2]; 100 nM) | surviving fraction (AFIMOXIFENE [2]; 500 nM) | surviving fraction (AFIMOXIFENE [2]; 1000 nM) | surviving fraction (IMATINIB; 50 nM) | surviving fraction (IMATINIB; 100 nM) | surviving fraction (IMATINIB; 1000 nM)
1 | 22RV1 PROSTATE | 2.97 | 2.95 | 3.57 | 3.33 | 1.06 ± 0.068 | 1.08 ± 0.019 | 1 ± 0.1 | 1.05 ± 0.046 | 1.14 ± 0.14 | 1.06 ± 0.088 | 1.04 ± 0.089 | 1.09 ± 0.054 | 1.09 ± 0.016 | 1.1 ± 0.048 | 1.06 ± 0.08 | 1.13 ± 0.056 | 1.04 ± 0.079 | – | – | –
2 | 93VU HEADNECK | 2.31 | 2.25 | 4.12 | 3.14 | 1.11 ± 0.14 | 1.13 ± 0.1 | 1.18 ± 0.019 | – | 1.29 ± 0.074 | 1.25 ± 0.11 | 1.2 ± 0.11 | 1.34 ± 0.074 | 1.32 ± 0.075 | 1.27 ± 0.053 | 1.2 ± 0.1 | 1.24 ± 0.12 | 1.08 ± 0.068 | 1.3 ± 0.099 | 1.25 ± 0.047 | 1.1 ± 0.079
3 | 143B BONE | 2.71 | 3.15 | – | – | 1.07 ± 0.022 | 1.1 ± 0.03 | – | 1.1 ± 0.013 | 1.15 ± 0.1 | – | 1.09 ± 0.041 | 1.15 ± 0.11 | 1.1 ± 0.036 | 1.12 ± 0.035 | 1.1 ± 0.033 | 1.14 ± 0.12 | 1.12 ± 0.15 | 1.14 ± 0.043 | – | 1.14 ± 0.11
4 | A549 LUNG | 3.15 | 3.18 | 3.56 | 3.3 | 1.09 ± 0.035 | 1.07 ± 0.026 | 1.11 ± 0.041 | 1.09 ± 0.041 | – | 1.07 ± 0.021 | 1.065 ± 0.0068 | 1.06 ± 0.022 | 1.08 ± 0.013 | 1.05 ± 0.023 | 1.1 ± 0.03 | 1.09 ± 0.022 | 1.11 ± 0.032 | 1.11 ± 0.049 | 1.1 ± 0.033 | 1.12 ± 0.016
5 | ASKA SYNOVIAL | 2.32 | 2.57 | 3.82 | 3.68 | 1.1 ± 0.017 | 1.09 ± 0.03 | 1.23 ± 0.1 | 1.08 ± 0.095 | 1.21 ± 0.095 | 1.11 ± 0.056 | 1.18 ± 0.097 | 1.18 ± 0.096 | 1.23 ± 0.031 | 1.18 ± 0.029 | 1.17 ± 0.069 | 1.04 ± 0.1 | 1.14 ± 0.064 | – | 1.19 ± 0.1 | 1.07 ± 0.094
6 | BT20 BREAST | 2.77 | 2.25 | 4.62 | 3.73 | 1.21 ± 0.064 | 1.22 ± 0.12 | – | 1.16 ± 0.062 | 1.45 ± 0.19 | 1.32 ± 0.11 | 1.27 ± 0.07 | 1.24 ± 0.065 | 1.3 ± 0.096 | 1.19 ± 0.086 | 1.28 ± 0.037 | 1.7 ± 0.076 | 1.9 ± 0.13 | – | 1.14 ± 0.033 | 1.46 ± 0.035
7 | BT549 BREAST | 2.27 | 1.6 | 3.21 | 3.6 | 1.15 ± 0.1 | 1.13 ± 0.068 | – | 1.12 ± 0.044 | 1.21 ± 0.11 | 0.924 ± 0.072 | 1.01 ± 0.1 | 1.01 ± 0.12 | 0.926 ± 0.082 | 0.93 ± 0.046 | 1.04 ± 0.013 | 1.07 ± 0.14 | 0.865 ± 0.052 | – | 1.17 ± 0.04 | 1.1 ± 0.15
8 | C33A CERVIX | 2.33 | 2.02 | 3.76 | 2.65 | 0.921 ± 0.058 | 0.999 ± 0.073 | – | 1.09 ± 0.1 | 1.05 ± 0.022 | 1.06 ± 0.065 | 1.07 ± 0.062 | 1.06 ± 0.15 | 1.1 ± 0.047 | 1.14 ± 0.083 | 1.21 ± 0.029 | 1.22 ± 0.12 | 1.34 ± 0.069 | 1.15 ± 0.08 | – | 1.08 ± 0.045
